Values quoted from earlier work in patent US20180161366A1, “METHODS OF OBTAINING MONONUCLEAR BLOOD CELLS AND USES THEREOF” (Biokine Therapeutics Ltd., priority 2015, published 2018).

B1: G-CSF: mobilization agent (protein, UniProt P09919 31-207, looked up)
Granulocyte …: TPLGPASSLPQSFLLKCLEQVRKIQGDGAALQEKLVSECATYKLCHPEELVLLGHSLGIPWAPLSSCPSQALQLAGCLSQLHSGLFLYQGLLQALEGISPELGPTLDTLQLDVADFATTIWQQMEELGMAPALQPTQGAMPAFASAFQRRAGGVLVASHLQSFLEVSYRVLRHLAQP

Conditions: from DiPersio Blood 2008; cited from earlier work

Molecule	B cells (CD19), Median (range)	Cytotoxic T cells (CD3+CD8+), Median (range)	HSPC (CD34+), Median (range)	NK cells (CD3−CD56+), Median (range)	T cells (CD3+), Median (range)	T helper cells (CD3+CD4+), Median (range)
c1cc(CN2CCCNCCNCCCNCC2)ccc1CN1CCCNCCNCCCNCC1 [AMD3100]	1.0 (0.2-2.4) × 10^8/Kg	1.3 (0.4-3.4) × 10^8/Kg	2.9 (1.2-6.3) × 10^6/Kg	0.3 (0.1-1.0) × 10^8/Kg	4.6 (1.5-7.8) × 10^8/Kg	3.2 (1-5.7) × 10^8/Kg
B1	–	0.4 (0.4-3.4) × 10^8/Kg	4.2 (2.5-18) × 10^6/Kg	0.2 (0.2-0.5) × 10^8/Kg	1.3 (1.2-6.8) × 10^8/Kg	1.1 (0.7-3.2) × 10^8/Kg
